Assay results as given in patent EP0295604A1, “(E)-2-(p-Fluorophenethyl)-3-fluoroallylamine” (MERRELL DOW PHARMACEUTICALS INC., priority 1987, dated 1988).

What was measured:
[1] = system: tachycardia response to tyramine; assay: Potentiation of the cardiovascular effects of tyramine (tachycardia response); assay type: in vivo; settings: for Tyramine potentiation ratio i.d.: intraduodenal tyramine 0.3-50 mg/kg; for Tyramine potentiation ratio i.v.: intravenous tyramine 1.25-80 µg/kg
From the text: Non-selective and MAO-A selective inhibitors are known to produce dangerous cardiovascular interactions with tyramine containing foods; the so-called "cheese reaction". L-Deprenyl is devoid of this effect.

MAO-B = assay: Chronic (14 day) oral administration, rat tissue MAO-B activity; assay type: in vivo
[2] = target: T1, rat brain mitochondrial MAO-B (Rattus norvegicus, UniProt P19643); assay: In vitro inhibition of rat brain mitochondrial MAO-B; assay type: biochemical; settings: MAO-A vs MAO-B IC50
T1 sequence (P19643 1-520): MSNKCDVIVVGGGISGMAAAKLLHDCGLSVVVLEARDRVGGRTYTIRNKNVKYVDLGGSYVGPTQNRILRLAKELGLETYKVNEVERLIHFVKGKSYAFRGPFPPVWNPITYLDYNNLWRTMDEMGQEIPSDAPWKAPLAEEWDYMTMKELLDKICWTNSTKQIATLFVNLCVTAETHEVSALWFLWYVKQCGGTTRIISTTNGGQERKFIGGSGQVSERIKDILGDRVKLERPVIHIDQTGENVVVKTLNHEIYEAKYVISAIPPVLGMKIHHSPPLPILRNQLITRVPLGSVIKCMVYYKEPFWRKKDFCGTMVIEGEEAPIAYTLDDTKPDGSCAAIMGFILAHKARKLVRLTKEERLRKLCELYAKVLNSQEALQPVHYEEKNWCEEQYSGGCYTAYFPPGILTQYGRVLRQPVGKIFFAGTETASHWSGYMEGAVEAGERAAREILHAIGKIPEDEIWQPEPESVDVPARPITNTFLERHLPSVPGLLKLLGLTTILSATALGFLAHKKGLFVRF

Striatal dopamine = assay: Prevention of MPTP neurotoxicity (striatal dopamine); assay type: in vivo; settings: mice
From the text: MPTP given parenterally to mice depletes striatal dopamine. This effect can be prevented by MAO-B, but not by MAO-A inhibitor.

MAO-A = assay: Chronic (14 day) oral administration, rat tissue MAO-A activity; assay type: in vivo
From the text: Following repeated daily administration for 14 days, (E)-2-p-fluorophenethyl)-3-fluoroallylamine remained selective for the MAO-B enzyme. From the irreversible inhibition, mode of action and the long half-life of the enzyme, a lower daily dose is needed to inhibit the enzyme.

[3] = target: T2, rat brain mitochondrial MAO-A (Rattus norvegicus, UniProt P21396); assay: In vitro inhibition of rat brain mitochondrial MAO-A; assay type: biochemical
T2 construct: from tissue; host or cells: rat brain mitochondria
T2 sequence (P21396 1-526): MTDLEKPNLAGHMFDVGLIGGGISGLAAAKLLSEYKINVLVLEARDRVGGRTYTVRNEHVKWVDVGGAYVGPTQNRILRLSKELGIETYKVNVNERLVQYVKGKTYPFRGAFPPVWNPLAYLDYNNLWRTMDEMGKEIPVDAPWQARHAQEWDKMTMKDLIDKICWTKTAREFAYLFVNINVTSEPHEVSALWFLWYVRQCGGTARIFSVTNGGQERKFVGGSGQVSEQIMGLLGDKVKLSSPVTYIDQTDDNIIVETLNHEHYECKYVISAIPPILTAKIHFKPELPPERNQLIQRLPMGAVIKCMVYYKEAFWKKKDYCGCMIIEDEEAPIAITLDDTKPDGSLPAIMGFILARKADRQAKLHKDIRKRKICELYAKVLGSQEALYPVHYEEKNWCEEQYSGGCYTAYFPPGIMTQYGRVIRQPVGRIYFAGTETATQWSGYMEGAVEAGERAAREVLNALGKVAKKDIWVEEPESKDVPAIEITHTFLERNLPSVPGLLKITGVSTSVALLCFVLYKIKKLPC
From the text: In vivo, the compound is active orally, is potent and with a selectivity ratio of 44 remains selective for MAO-B.

selectivity ratio in favor of MAO-B inhibition [2]	IC50 [3] [nM]	Compound	Tyramine potentiation ratio i.d. ([1]; 1.8 mg/kg p.o.)	Tyramine potentiation ratio i.v. ([1]; 1.8 mg/kg p.o.)	Tyramine potentiation ratio i.d. ([1]; 9 mg/kg p.o.)	Tyramine potentiation ratio i.v. ([1]; 9 mg/kg p.o.)	interactions with tyramine ([1]; given acutely at 10 and 50 times the ED50 dose for inhibition of MAO-B)	ED50 MAO-B (MAO-B; Brain) [mg/kg p.o.]	ED50 MAO-B (MAO-B; Duodenum) [mg/kg p.o.]	ED50 MAO-B (MAO-B; Heart) [mg/kg p.o.]	ED50 MAO-B (MAO-B; Liver) [mg/kg p.o.]	Striatal dopamine (Striatal dopamine; MPTP plus compound)	Striatal dopamine (Striatal dopamine; compound alone, 1.25 mg/kg i.p.)	ED50 MAO-A (MAO-A; Brain) [mg/kg p.o.]	ED50 MAO-A (MAO-A; Duodenum)	ED50 MAO-A (MAO-A; Heart) [mg/kg p.o.]	ED50 MAO-A (MAO-A; Liver) [mg/kg p.o.]	Striatal dopamine (Striatal dopamine; MPTP alone, 20 mg/kg i.p.)
190	680	NC/C(=C/F)CCc1ccc(F)cc1 [(E)-2-(p-fluorophenethyl)-3-fluoroallylamine]	1.4	0.8	1.3	1.8	devoid of interactions with tyramine	0.025	0.25	0.5	0.01	16.0 ± 0.4 ug/g ± SEM	16.6 ± 0.9 ug/g ± SEM	> 5	>>5 mg/kg p.o.	5	> 5	
		CN1CC=C(c2ccccc2)CC1 [MPTP, N-methyl-4-phenyl-1,2,3,6-tetrahydropyridine, reference compound]																4.3 ± 0.4 ug/g ± SEM
